Source: patent US9150512B2, “Tricyclic lactam derivatives as 11-beta hydroxysteroid dehydrogenase inhibitors” (Janssen Pharmaceutica NV, priority 2004, dated 2015)
pIC50: −log10 of the molar value.

Experiments:
11b-HSD1 = biological target: T1, 11b-HSD1 (Mus musculus, UniProt P50172); test: Cellular assay, 11b-HSD1 activity in differentiated 3T3-L1 cells; type: cell-based; conditions: 4 hour pre-incubation, pIC50 scored, read-out: [C2] HSD1 cellular 3T3-L1 Score
T1 construct: endogenous in cells; host or cells: 3T3-L1 (ATCC-CL-173), differentiated into adipocytes
T1 sequence (P50172 whole entry): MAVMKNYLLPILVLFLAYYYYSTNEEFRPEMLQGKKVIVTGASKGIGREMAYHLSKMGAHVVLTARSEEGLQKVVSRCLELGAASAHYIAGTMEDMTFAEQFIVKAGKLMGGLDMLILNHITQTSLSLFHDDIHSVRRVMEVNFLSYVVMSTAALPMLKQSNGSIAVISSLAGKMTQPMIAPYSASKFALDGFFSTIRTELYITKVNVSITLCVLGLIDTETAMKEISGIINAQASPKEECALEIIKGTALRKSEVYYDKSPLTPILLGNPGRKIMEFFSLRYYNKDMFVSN
Procedure: The effects on 11b-HSD1 activity was measured in differentiated 3T3-L1 cells and rat hepatocytes.
Mouse fibroblast 3T3-L1 cells (ATCC-CL-173) were seeded at a density of 16500 cells/ml in 12 well plates and grown for 7 days in DMEM medium (supplemented with 10% heat inactivated foetal calf serum, 2 mM glutamine and 25 mg gentamycin) at 37° C. in a humidified 5% CO2 atmosphere. Medium was refreshed twice a week. Fibroblasts were differentiated into adipocytes at 37° C. in a 5% CO2 humidified atmosphere in growth medium containing 2 μg/ml insulin, 55 μg/ml IBMX and 39.2 μg/ml dexamethasone.
Primary hepatocytes from male rats were seeded on normal Falcon 12 well plates at a density of 250000 cells/well and incubated for 16 hours at 37° C. in a 5% CO2 humidified atmosphere in DMEM-HAM's F12 medium containing 5% Nu-serum, 100 U/ml penicillin, 100 μg/ml streptomycin, 0.25 μg/ml amphotericin B, 50 μg/ml gentamycin sulfate, 5 μg/ml insulin and 392 ng/ml dexamethasone. Following a 4 hour pre-incubation with test compound, 0.5 μCi ^3H-cortisone or dehydrocorticosterone, was added to the 3T3-L1 cultures. One hour later, the medium was extracted on Extrelut^3-columns with 15 ml diethyl ether and the extract was analysed by HPLC as described above. The effects of JNJ-compounds on rat hepatocyte HSD1 activity was measured after an incubation period of 90 minutes with 0.5 μCi^3H-dehydrocorticosterone. Corticosterone formation was analysed by HPLC.
(§1) As for the enzymatic assays, the compounds to be tested were taken from a stock solution and tested at a final concentration ranging from −10^−5M to 3·10^−9M. From the thus obtained dose response curves, the pIC50 value was calculated and scored as follows; Score 1=pIC50 value<5, Score 2=pIC50 value in the range of 5 to 6, Score 3=pIC50 value>6. (in this table NT stands for Not Tested).

hHSD1 = hHSD1 (Homo sapiens, UniProt P28845); test: Enzymatic assay, 11b-HSD1 reductase activity (conversion of cortisone into cortisol), recombinant protein; type: biochemical; conditions: 2 μM cortisone, 180 μM NADPH, pH 7.2, pIC50 scored, read-out: [C1] hHSD1 reductase Score
Chain of hHSD1 (P28845 whole entry): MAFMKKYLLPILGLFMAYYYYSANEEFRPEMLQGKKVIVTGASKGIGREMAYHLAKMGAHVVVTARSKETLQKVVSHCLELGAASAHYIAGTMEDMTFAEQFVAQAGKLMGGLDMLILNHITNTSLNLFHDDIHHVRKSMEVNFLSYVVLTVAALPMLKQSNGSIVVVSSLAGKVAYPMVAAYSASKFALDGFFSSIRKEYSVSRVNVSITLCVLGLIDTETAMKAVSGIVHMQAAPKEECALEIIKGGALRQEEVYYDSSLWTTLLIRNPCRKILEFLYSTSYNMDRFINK
Procedure: The effects of compounds on 11b-HSD1 dependent conversion of cortisone into cortisol (reductase activity) was studied in a reaction mixture containing 30 mM Tris-HCl buffer pH 7.2, 180 μM NADPH, 1 mM EDTA, 2 μM cortisone, 1 μl drug and/or solvent and 11 μg recombinant protein in a final volume of 100 μl.
All incubations were performed for 45 min at 37 C in a water bath. The reaction was stopped by adding 100 μl acetonitrile containing 20 μg corticosterone as internal standard. After centrifugation, the product formation was analysed in the supernatant by HPLC on a Hypersyl BDS-C18 column using 0.05 mM ammonium acetate/methanol (50/50) as solvent. In all of the aforementioned assays, the drugs to be tested were taken from a stock solution and tested at a final concentration ranging from −10^−5M to 3·10^−9M. From the thus obtained dose response curves, the pIC50 value was calculated and scored as follows; Score 1=pIC50 value<5, Score 2=pIC50 value in the range of 5 to 6, Score 3=pIC50 value>6. (in this table NT stands for Not Tested).

11b-HSD2 = biological target: T2, 11b-HSD2 (Homo sapiens, UniProt P80365); test: Cellular assay, 11b-HSD2 activity in HepG2 cells; type: cell-based; conditions: 4 hour pre-incubation, pIC50 scored, read-out: [C2] HSD2 cellular HepG2 Score
T2 construct: endogenous in cells; host or cells: HepG2 (ATCC HB-8065)
T2 sequence (P80365 1-405): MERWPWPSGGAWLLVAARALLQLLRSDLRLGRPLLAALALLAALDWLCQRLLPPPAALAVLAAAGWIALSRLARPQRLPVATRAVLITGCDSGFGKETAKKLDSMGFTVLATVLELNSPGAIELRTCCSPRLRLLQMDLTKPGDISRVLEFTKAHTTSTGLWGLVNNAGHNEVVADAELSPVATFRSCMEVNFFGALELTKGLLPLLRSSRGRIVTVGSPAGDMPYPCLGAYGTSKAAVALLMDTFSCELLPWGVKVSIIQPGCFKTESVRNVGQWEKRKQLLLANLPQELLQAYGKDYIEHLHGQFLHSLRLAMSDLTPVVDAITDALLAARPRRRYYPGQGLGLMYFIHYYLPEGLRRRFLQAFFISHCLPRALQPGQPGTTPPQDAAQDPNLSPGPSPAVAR
Procedure: The effects on 11b-HSD2 activity was studied in HepG2 and LCC-PK1-cells HepG2-cells (ATCC HB-8065) were seeded in 12 well plates at a density of 100,000 cells/ml and grown at 37° C. in a humidified 5% CO2 atmosphere in MEM-Rega-3 medium supplemented with 10% heat inactivated foetal calf serum, 2 mM L-glutamine and sodium bicarbonate). Medium was refreshed twice a week.
Following a 4 hour pre-incubation with test compound, 0.5 μCi ^3H-cortisol or corticosterone, was added to the cultures. One hour later, the medium was extracted on Extrelut^3-columns with 15 ml diethyl ether and the extract was analysed by HPLC as described above.
as §1

SMILES | pIC50 (11b-HSD1) | pIC50 (hHSD1) | pIC50 (11b-HSD2) | melting point [°C]
O=C1[C@@H]2c3ccccc3CC[C@@H]2CN1C1C2CC3CC(C2)CC1C3 (some centres unmarked) [Compound 1] | 5.00 to 6.00 | 5.00 to 6.00 | – | –
O=C1C2Cc3ccccc3CC2CN1C1C2CC3CC(C2)CC1C3 (centres unmarked) [Compound 2] | > 6.00 | > 6.00 | 5.00 to 6.00 | –
O=C1[C@H]2CCc3ccccc3[C@@H]2CN1C1C2CC3CC(C2)CC1C3 (some centres unmarked) [Compound 3] | > 6.00 | > 6.00 | > 6.00 | –
O=C1[C@H]2Cc3ccccc3CN2CN1C1C2CC3CC(C2)CC1C3 (some centres unmarked) [Compound 4] | > 6.00 | < 5.00 | < 5.00 | –
O=C1N(C2C3CC4CC(C3)CC2C4)C[C@H]2Cc3ccccc3CN12 (some centres unmarked) [Compound 5] | > 6.00 | 5.00 to 6.00 | 5.00 to 6.00 | –
O=C1N2CCc3ccccc3C2CN1C1C2CC3CC(C2)CC1C3 (centres unmarked) [Compound 6] | > 6.00 | > 6.00 | > 6.00 | –
O=C1N2CCc3ccc(Br)cc3C2CN1C1C2CC3CC(C2)CC1C3 (centres unmarked) [Compound 7] | > 6.00 | > 6.00 | – | –
O=C1[C@@H]2CCc3ccccc3[C@@H]2CN1C1C2CC3CC(C2)CC1C3 (some centres unmarked) [Compound 8] | > 6.00 | 5.00 to 6.00 | 5.00 to 6.00 | –
COc1cccc2c1CC1CN(C3C4CC5CC(C4)CC3C5)C(=O)C1C2 (centres unmarked) [Compound 9] | > 6.00 | 5.00 to 6.00 | 5.00 to 6.00 | –
COc1ccc2c(c1)CC1C(=O)N(C3C4CC5CC(C4)CC3C5)CC1C2 (centres unmarked) [Compound 10] | > 6.00 | > 6.00 | < 5.00 | –
O=C1N(C2C3CC4CC(C3)CC2C4)C[C@@H]2Cc3ccccc3CN12 (some centres unmarked) [Compound 11] | > 6.00 | – | – | –
O=C1[C@@H]2Cc3ccccc3CN2CN1C1C2CC3CC(C2)CC1C3 (some centres unmarked) [Compound 12] | 5.00 to 6.00 | – | – | –
O=C1N(C2C3CC4CC(C3)CC2C4)CC2CCc3ccccc3N12 (centres unmarked) [Compound 13] | < 5.00 | < 5.00 | < 5.00 | –
O=C1N(CC23CC4CC(CC(C4)C2)C3)CC2c3ccccc3CCN12 (centres unmarked) [Compound 14] | > 6.00 | > 6.00 | 5.00 to 6.00 | –
O=C1[C@H]2CCc3ccccc3[C@@H]2CN1CC12CC3CC(CC(C3)C1)C2 [Compound 15] | > 6.00 | > 6.00 | 5.00 to 6.00 | –
O=C1[C@@H]2CCc3ccccc3[C@@H]2CN1CC12CC3CC(CC(C3)C1)C2 [Compound 16] | > 6.00 | > 6.00 | 5.00 to 6.00 | –
O=C1[C@H]2CCc3ccccc3[C@@H]2CN1C12CC3CC(CC(C3)C1)C2 [Compound 17] | > 6.00 | > 6.00 | > 6.00 | –

SMILES | pIC50 (11b-HSD1) | pIC50 (hHSD1) | pIC50 (11b-HSD2) | melting point [°C]
O=C1[C@H]2Cc3ccsc3C[C@@H]2CN1C1C2CC3CC(C2)CC1C3 (some centres unmarked) [Compound 18] | > 6.00 | > 6.00 | 5.00 to 6.00 | –
O=C1[C@@H]2CCc3ccccc3[C@H]2CN1Cc1ccccc1 [Compound 19] | > 6.00 | < 5.00 | – | –
O=C1[C@@H]2CCc3ccccc3[C@@H]2CN1Cc1ccccc1 [Compound 20] | > 6.00 | 5.00 to 6.00 | – | –
O=C1C2=Cc3cccnc3CC2CN1C1C2CC3CC(C2)CC1C3 (centres unmarked) [Compound 21] | > 6.00 | < 5.00 | – | –
O=C1C2=Cc3cnccc3CC2CN1C1C2CC3CC(C2)CC1C3 (centres unmarked) [Compound 22] | > 6.00 | 5.00 to 6.00 | – | –
O=C1N2CCc3c(Br)cccc3C2CN1C1C2CC3CC(C2)CC1C3 (centres unmarked) [Compound 23] | > 6.00 | > 6.00 | > 6.00 | –
O=C1N2CCc3ccccc3C2CN1[C@H]1[C@@H]2CC3C[C@H]1C[C@](O)(C3)C2 (some centres unmarked) [Compound 24] | > 6.00 | > 6.00 | > 6.00 | 235 to 237
O=C1N2CCc3ccccc3C2CN1[C@@H]1[C@@H]2CC3C[C@H]1C[C@](O)(C3)C2 (some centres unmarked) [Compound 25] | > 6.00 | 5.00 to 6.00 | – | 210 to 212
O=C1[C@@H]2Cc3ccccc3C[C@@H]2CN1[C@@H]1[C@@H]2CC3C[C@H]1C[C@](O)(C3)C2 [Compound 26] | 5.00 to 6.00 | 5.00 to 6.00 | < 5.00 | –
O=C1[C@H]2Cc3ccccc3C[C@H]2CN1[C@H]1[C@@H]2CC3C[C@H]1C[C@](O)(C3)C2 [Compound 27] | > 6.00 | > 6.00 | 5.00 to 6.00 | –
O=C1[C@@H]2Cc3cccnc3C[C@@H]2CN1[C@@H]1[C@@H]2CC3C[C@H]1C[C@](O)(C3)C2 [Compound 28] | < 5.00 | < 5.00 | < 5.00 | –
O=C1[C@H]2Cc3cnccc3C[C@H]2CN1[C@@H]1[C@@H]2CC3C[C@H]1C[C@](O)(C3)C2 [Compound 29] | < 5.00 | < 5.00 | < 5.00 | –
O=C1C2=Cc3cnccc3CC2CN1[C@H]1[C@@H]2CC3C[C@H]1C[C@](O)(C3)C2 (some centres unmarked) [Compound 30] | 5.00 to 6.00 | < 5.00 | < 5.00 | –
O=C1[C@@H]2CCc3ccccc3[C@H]2CN1[C@H]1[C@@H]2CC3C[C@H]1C[C@](O)(C3)C2 [Compound 31] | > 6.00 | > 6.00 | > 6.00 | –
O=C1[C@@H]2CCc3ccccc3[C@H]2CN1[C@H]1[C@@H]2CC3C[C@H]1C[C@](F)(C3)C2 [Compound 32] | > 6.00 | > 6.00 | > 6.00 | –
O=C1[C@@H]2CCc3ccccc3[C@@H]2CN1[C@H]1[C@@H]2CC3C[C@H]1C[C@](O)(C3)C2 [Compound 33] | > 6.00 | > 6.00 | > 6.00 | –
O=C1[C@H]2Cc3cnccc3C[C@H]2CN1[C@H]1[C@@H]2CC3C[C@H]1C[C@](O)(C3)C2 [Compound 34] | 5.00 to 6.00 | 5.00 to 6.00 | – | –
